According to patent US6875781B2, “Pyridines and uses thereof” (Cell Therapeutics, Inc., priority 2003, dated 2005):

Target: T1, LPAAT-β (Homo sapiens, UniProt O15120)
T1 construct: the full-length human LPAAT-β cDNA was amplified by PCR from the DNA template pCE9.LPAAT-β; poly-histidine tag (N); made in house; host or cells: Sf9 insect cells (baculovirus, pFastBac HTc); membrane fraction used
T1 sequence (O15120 24-278): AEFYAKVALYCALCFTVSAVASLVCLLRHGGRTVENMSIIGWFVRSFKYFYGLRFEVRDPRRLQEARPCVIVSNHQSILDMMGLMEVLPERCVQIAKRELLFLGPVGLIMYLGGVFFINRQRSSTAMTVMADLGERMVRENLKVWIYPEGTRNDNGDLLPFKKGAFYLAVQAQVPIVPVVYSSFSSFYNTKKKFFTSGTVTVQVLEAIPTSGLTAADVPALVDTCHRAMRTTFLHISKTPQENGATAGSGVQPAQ
Assay: LPAAT-β cell-free assay
Assay type: biochemical
Settings: Sf9 cell membrane overexpressing recombinant LPAAT-β
Excerpt: For the construction of Baculovirus expression vectors, the full-length human LPAAT-β cDNA was amplified by PCR from the DNA template pCE9.LPAAT-β (West et at., DNA Cell Biol. 16:691-701 (1997)) using the primers 5′-[…] ATGGAGCTGTGGCCGTCTC-3′ (olpb1F; SEQ ID NO:1) and 5′-CAGGCTCTAG ACTACTGGGCCGGCTGCAC-3′ (olpb1R; SEQ ID NO:2). The ˜870 bp fragment generated was reamplified by PCR using the primers 5′[…] TCCGAAGAAGATC-3′ (olpb2F; SEQ ID NO:3) and 5′-CAGGCTCTAGCTACTGGGC CGGCTGCAC-3′ (olpb1R; SEQ ID NO:2). The ˜890 bp fragment generated as then cleaved with Sal I and Xba I for insertion into pFastBac™ HTc vector (Life Technologies, Gaithersberg, Md.) between the Sal I and Xba I sites for the generation of the plasmid pFB.LPAAT-β. This plasmid was then transformed into E. coli DH10Bac™ (Life Technologies, Gaithersberg, Md.) for the generation of recombinant Bacmid DNA for transfection in HighFive (Invitrogen, San Diego, Calif.) or SF9 insect cells for the production of recombinant Baculovirus stocks using the protocol described in the Bac-to-Bac® Baculovirus Expression System (Life Technologies, Gaithersberg, Md.), a eukaryotic expression system for generating recombinant baculovirus through site-specific transposition in E. coli. Viral stocks harvested from the transfected cells can then be used to infect fresh insect cells for the subsequence expression of LPAAT-β fusion protein with a poly-histidine tag and a myc-epitope near its N-terminus. The membrane fraction from these Sf9 cells would be the source of LPAAT enzyme.
For the preparation of membranes from Sf9 Cells, all steps are performed on ice or at 4° C. Sf9 cell pellets (˜10^8 cells) were thawed and resuspended in 1-2 ml of buffer A (20 mM Hepes, pH 7.5, 1 mM DTT, 1 mM EDTA, 20% w/v glycerol, 1 mM Benzamidine, 1 μg/ml soybean trypsin inhibitor (SBTI), 1 μg/ml pepstatin A) w/o DTT but with 1 mM Pefabloc. The cells were lysed by sonication using a Branson Sonifier at output=2, duty cycle=2, 10 pulses each at 10 s. with the tip of small sonicator probe submerged but not touching the walls. DTT was then added to 1 mM from a 1 M stock. The samples were centrifuged at 1500 rpm for 5 min. The low speed supernatant was saved and centrifuged (TLA 100.3 rotor, polycarbonate tubes, 2 ml/tube or 1.5 ml/tube minimum) at 100000×g for 1 hr. The high speed pellet was resuspend in Buffer A with a probe sonicator (10 pulses @ output #2 and duty cycle 20%) as a source of LPAAT enzyme.
LPAAT-β catalyzes the transfer of an acyl group from a donor such as acyl-CoA to LPA. The transfer of the acyl group from acyl-CoA to LPA leads to the release of free CoA, which can be reacted with the thiol reagent, 5,5′-dithiobis(2-nitrobenzoic acid) (DTNB). The reaction between DTNB and the free sulfhydryl group from CoA generates a yellow-colored product, 3-carboxylato-4-nitrothiophenolate (CNP), that absorbs at 413 nm. LPAAT-β derived from Sf9 cell membrane overexpressing LPAAT-β were resuspended in HEPES saline buffer (20 mM HEPES pH 7.5, 150 mM NaCl), 1 mg/ml BSA and 72 μl aliquots were distributed into 96-well microtiter plates. 8 μl of compound of interest at 200 μM dissolved in 100% DMSO was added into each well. 20 μl of 1 mM 18:1-CoA and 1 mM sn-1-18:1 lysoPA was then added to each well to initiate the reaction and allowed to run at room temperature for 25 min. 100 μl of 1 mM DTNB in 100% ethanol was then added to each well to quench the reaction and for color development. The absorbance at 405 nm, measured using a spectrophotometer plate reader, is proportional to the activity of LPAAT-β in the sample. This colorimetric assay was used for the high throughput screening of LPAAT inhibitors.
The radiometric assay was carried out in Sf9 cell membrane overexpressing LPAAT-β resuspended in HEPES-saline buffer, pH 7.5, 1 mg/ml BSA, 1 mM EDTA and 200 μM [^14C]18:1-CoA and 200 μM sn-1-18:1 lysoPA. […]

Row | Compound | IC50 [nM]
1 | COc1ccc(Cl)cc1-c1cc(Nc2ccc(Cl)cc2)cc(N)n1 [Example 7, 6-(5-Chloro-2-methoxy-phenyl)-N*4*-(4-chloro-phenyl)-pyridine-2,4-diamine] | 18000
2 | COc1ccc(Cl)cc1-c1cc(Cl)cc(Nc2ccc(C)cc2)n1 [Example 2, [4-Cloro-6-(5-chloro-2-methoxy-phenyl)-pyridin-2-yl]-p-tolyl-amine] | > 40000
3 | COc1ccc(Cl)cc1-c1cc(Nc2ccc(C)cc2)cc(Cl)n1 [Example 1, [2-Chloro-6-(5-chloro-2-methoxy-phenyl)-pyridin-4-yl]-p-tolyl-amine] | 200
4 | COc1ccc(Cl)cc1-c1cc(N)cc(Nc2ccc(Cl)cc2)n1 [Example 4, 6-(5-Chloro-2-methoxy-phenyl)-N*2*-(4-chloro-phenyl)-pyridine-2,4-diamine] | 6500
5 | COc1ccc(Cl)cc1-c1cc(Nc2ccc(C)cc2)cc(N)n1 [Example 6, 6-(5-Chloro-2-methoxy-phenyl)-N*4*-p-tolyl-pyridine-2,4-diamine] | 35000
6 | COc1ccc(Cl)cc1-c1cc(N)nc(Nc2ccc(Cl)cc2)c1 [Example 8, 4-(5-Chloro-2-methoxy-phenyl)-N-(4-chloro-phenyl)-pyridine-2,6-diamine] | 40
7 | COc1ccc(Cl)cc1-c1cc(N)cc(Nc2ccc(C)cc2)n1 [Example 3, 6-(5-Chloro-2-methoxy-phenyl)-N*2*-p-tolyl-pyridine-2,4-diamine] | 29000
8 | COc1ccc(Cl)cc1-c1cc(Nc2ccc(C)cc2)cc(NC(C)=O)n1 [Example 5, N-[6-(5-chloro-2-methoxy-phenyl)-4-p-tolylamino-pyridin-2-yl]-acetamide] | 34000

Next, values leading:

Row | IC50 [nM] | Compound
9 | 50 | CCOc1ccc(Cl)cc1-c1cc(N)nc(Nc2ccc(C=O)cc2)c1 [Example 12, 4-[6-Amino-4-(5-chloro-2-ethoxy-phenyl)-pyridin-2-ylamino]-benzaldehyde]
10 | 50 | CCOc1ccc(Cl)cc1-c1cc(N)nc(Nc2ccc(Cl)cc2)c1 [Example 11, 4-(5-Chloro-2-ethoxy-phenyl)-N-(4-chloro-phenyl)-pyridine-2,6-diamine]
11 | 100 | CCOc1ccc(Cl)cc1-c1cc(N)nc(Nc2ccc(CO)cc2)c1 [Example 13, {4-[6-Amino-4-(5-chloro-2-ethoxy-phenyl)-pyridin-2-ylamino]-phenyl}-methanol]
12 | 490 | CCOc1ccc(Cl)cc1-c1cc(N)nc(Nc2ccc(C)cc2)c1 [Example 10]
13 | 260 | COc1ccc(Cl)cc1-c1cc(N)nc(Nc2ccc(C=O)cc2)c1 [Example 14, 4-[6-Amino-4-(5-chloro-2-methoxy-phenyl)-pyridin-2-ylamino]-benzaldehyde]
14 | 240 | COc1ccc(Cl)cc1-c1cc(N)nc(Nc2ccc(C)cc2)c1 [Example 9]
